For test [1], the target named is T1, Protein-arginine deiminase type-4 (Homo sapiens, UniProt Q9UM07). Nature of the test: Inhibition of PAD4 by ABPP-based assay.
Test [2] deals with T1, Protein-arginine deiminase type-4. The test can be described thus: Inhibition of PAD4 measured by slope plot of Lineweaver-Burke analyses.
Test [3] shares this target. The test can be described thus: Inhibition of PAD4 measured by intercept plot of Lineweaver-Burke analyses.

pIC50, pKi: −log10 of the molar value.

T1 sequence (Q9UM07 whole entry): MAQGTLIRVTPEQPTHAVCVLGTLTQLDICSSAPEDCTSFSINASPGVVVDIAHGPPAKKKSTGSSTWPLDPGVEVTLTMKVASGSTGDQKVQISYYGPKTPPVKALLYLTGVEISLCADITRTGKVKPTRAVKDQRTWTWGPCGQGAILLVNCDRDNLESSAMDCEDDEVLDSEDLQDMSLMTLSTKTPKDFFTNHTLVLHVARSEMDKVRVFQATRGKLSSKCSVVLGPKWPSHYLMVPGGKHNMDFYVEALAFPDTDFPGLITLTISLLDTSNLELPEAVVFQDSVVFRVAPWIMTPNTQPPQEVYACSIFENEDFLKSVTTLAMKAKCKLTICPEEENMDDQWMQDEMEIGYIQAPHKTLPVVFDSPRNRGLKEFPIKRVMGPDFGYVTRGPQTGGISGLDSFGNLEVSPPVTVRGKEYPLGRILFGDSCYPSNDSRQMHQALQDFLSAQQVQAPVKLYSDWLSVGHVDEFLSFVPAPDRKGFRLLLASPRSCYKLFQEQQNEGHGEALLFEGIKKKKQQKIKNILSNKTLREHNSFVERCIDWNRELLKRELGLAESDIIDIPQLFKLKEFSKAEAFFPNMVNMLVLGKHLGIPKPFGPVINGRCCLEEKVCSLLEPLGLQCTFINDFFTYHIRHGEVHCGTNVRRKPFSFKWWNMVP

A word on the pIC50: it is the negative decadic logarithm of the IC50, by convention in mol/L. In test [1], `CC[C@H]1OC(=O)[C@H](C)[C@@H](O[C@H]2C[C@@](C)(OC)[C@@H](O)[C@H](C)O2)[C@H](C)[C@@H](O[C@@H]2O[C@H](C)C[C@H](N(C)C)[C@H]2O)[C@](C)(O)C[C@@H](C)CN(C)[C@H](C)[C@@H](O)[C@]1(C)O` [AZITHROMYCIN] gave a pIC50 of under 2.00.

`Cc1cc(NS(=O)(=O)c2ccc(N)cc2)no1` [SULFAMETHOXAZOLE] had a pIC50 in test [1] of under 2.00.

Broadly, the pKi is −log10 of the Ki, conventionally taken in molar units. A higher pKi goes with a low Ki. In test [1], `CN(C)c1ccc(O)c2c1C[C@H]1CC3[C@H](N(C)C)C(O)=C(C(N)=O)C(=O)C3(O)C(O)=C1C2=O` (single isomer, unassigned) [MINOCYCLINE] had a pIC50 of 3.21. The pKi is 3.74 in test [2] and 3.20 in test [3].

Compound `Cc1oncc1C(=O)Nc1ccc(C(F)(F)F)cc1` [LEFLUNOMIDE] had a pIC50 in test [1] of 2.62.

The compound `CN(Cc1cnc2nc(N)nc(N)c2n1)c1ccc(C(=O)N[C@@H](CCC(=O)O)C(=O)O)cc1` [METHOTREXATE] had a pIC50 in test [1] of under 2.00.

`CN(C)[C@@H]1C(O)=C(C(N)=O)C(=O)[C@@]2(O)C(O)=C3C(=O)c4c(O)cccc4[C@@](C)(O)[C@H]3C[C@@H]12` [TETRACYCLINE] gave a pIC50 in test [1] of 3.11.

In turn, `Cn1cnc([N+](=O)[O-])c1Sc1ncnc2nc[nH]c12` [AZATHIOPRINE] had a negative-log IC50 (pIC50) in test [1] of 2.09.

The values are drawn from ChEMBL document CHEMBL1143172, “Profiling Protein Arginine Deiminase 4 (PAD4): a novel screen to identify PAD4 inhibitors” (Bioorg Med Chem, 2008).
